Laboratory results: ChEMBL document CHEMBL4303087, “Broad anti-coronaviral activity of FDA approved drugs against SARS-CoV-2 in vitro and SARS-CoV in vivo” (2020)
Several values for one entry are separate records, joined by “and”; a condition that tells them apart may be missing. Equal values may be shown once. Where a name gives a salt, the structure may show the parent alone. Activity calls are given as the source filed them. No cut-off for these calls is given here.

How the values were obtained:
in vitro [1] = conditions: monkey, Vero E6 cells, Selectivity index
SARS-CoV-2 [2] = experiment: microbe, parasite or virus in culture; format: functional, organism-based, Chlorocebus sabaeus, Vero C1008
SARS-CoV-2 [3] = experiment: microbe, parasite or virus in culture; format: functional, organism-based, Chlorocebus sabaeus, Vero C1008; remark: listed apart in the source
in vitro [4] = conditions: monkey, Vero E6 cells, Selectivity index; remark: listed apart in the source
Vero C1008 = conditions: chlorocebus sabaeus, vero c1008, 72 h
SARS-CoV = experiment: Reduction of SARS spike protein-mediated cell fusion using BlaM pseudovirus assay system in BSC1 cells; format: functional, Chlorocebus aethiops, BSC-1
SARS-CoV-2 [5] = experiment: Reduction of viral mRNA (RdRp and N) in SARS-CoV-2 infected Vero E6 cells (at MOI 0.1) after 24 hrs; format: functional, organism-based; conditions: Chlorocebus sabaeus; Vero C1008
SARS-CoV-2 [6] = experiment: Reduction of SARS-CoV-2 infection by time of addition assay, with 50uM hydroxychloroquine administered at -2hrs, 0 hrs and 2hrs post-infection; format: functional, organism-based; conditions: Chlorocebus sabaeus, Vero C1008
[7] = Severe acute respiratory syndrome coronavirus 2, Vero C1008, 72 h

SMILES | selectivity ratio (in vitro [1]) | IC50 (SARS-CoV-2 [2]; [7]) [µM] | IC50 (SARS-CoV-2 [3]; [7]) [µM] | selectivity ratio (in vitro [4]) | CC50 (Vero C1008) [µM] | further results
CCSc1ccc2c(c1)N(CCCN1CCN(C)CC1)c1ccccc1S2 [THIETHYLPERAZINE MALEATE] | 2.29 | 8.02 | 7.09 | 2.59 | 18.4 | 
CN(C)CCOc1ccc(/C(=C(/CCCl)c2ccccc2)c2ccccc2)cc1 [TOREMIFENE CITRATE] | 1.81 | 11.3 | 4.77 | 4.3 | 20.5 | 
CC(C)N1CCN(c2ccc(OCC3COC(Cn4cncn4)(c4ccc(Cl)cc4Cl)O3)cc2)CC1 (stereo not drawn) [TERCONAZOLE] | 2.57 | 16.1 | 11.9 | 3.48 | 41.5 | 
CC[C@H]1CN2CCc3cc(OC)c(OC)cc3[C@@H]2C[C@@H]1C[C@H]1NCCc2cc(OC)c(OC)cc21 [EMETINE DIHYDROCHLORIDE HYDRATE] |  |  |  |  | < 0.39 | 
CCN(CC)CCCC(C)Nc1ccnc2cc(Cl)ccc12.O=P(O)(O)O.O=P(O)(O)O (stereo not drawn) [CHLOROQUINE PHOSPHATE] |  | 46.8 | 42 |  |  | Inhibition (SARS-CoV): >90%; Activity (SARS-CoV-2 [5]): Active
CCN(CC)Cc1cc(Nc2ccnc3cc(Cl)ccc23)ccc1O [AMODIAQUINE HYDROCHLORIDE] | 6.97 | 4.94 | 2.59 | 13.3 |  | IC50 (SARS-CoV-2 [2]; vero c1008): 5.64 µM; IC50 (SARS-CoV-2 [3]; vero c1008): 2.36 µM; CC50 (Vero C1008; 72 h): 34.4 µM and > 38.6 µM
Nc1ccn([C@@H]2O[C@H](CO)[C@@H](O)C2(F)F)c(=O)n1 [GEMCITABINE HYDROCHLORIDE] |  |  |  |  | 23.2 | 
O=C1NCN(c2ccccc2)C12CCN(CCCC(c1ccc(F)cc1)c1ccc(F)cc1)CC2 | 5.71 | 5.32 | 3.16 | 9.61 | 30.3 | 
OC(c1cc(C(F)(F)F)nc2c(C(F)(F)F)cccc12)C1CCCCN1 (stereo not drawn) [MEFLOQUINE HYDROCHLORIDE] | 2.3 | 8.06 | 7.11 | 2.61 | 18.5 | 
CC/C(=C(\c1ccccc1)c1ccc(OCCN(C)C)cc1)c1ccccc1 [TAMOXIFEN CITRATE] |  |  |  |  | 38 | 
CCN(CCO)CCCC(C)Nc1ccnc2cc(Cl)ccc12 (stereo not drawn) [HYDROXYCHLOROQUINE SULFATE] | > 4.48 | 11.2 | 9.21 | > 5.43 | > 50 | Activity (SARS-CoV-2 [6]; time 0.0 hr): Active; Activity (SARS-CoV-2 [6]; time 2.0 hr): Active; Activity (SARS-CoV-2 [6]; time -2.0 hr): Active; Activity (SARS-CoV-2 [5]): Active
CN(C)CCCN1c2ccccc2Sc2ccc(Cl)cc21.Cl [CHLORPROMAZINE HYDROCHLORIDE] |  | 4.03 | 3.14 |  | 11.9 | Inhibition (SARS-CoV): >90%
CC(CN1c2ccccc2Sc2ccccc21)N(C)C (stereo not drawn) [PROMETHAZINE HYDROCHLORIDE] | > 4.08 | 10.4 | 9.21 | > 4.62 | > 42.6 | 
CCN(CC)CCOc1ccc(C(O)(Cc2ccc(Cl)cc2)c2ccc(C)cc2)cc1 (stereo not drawn) [TRIPARANOL] | 3.31 | 6.41 | 4.68 | 4.53 | 21.2 | 
Cc1ccc(NC(=O)c2ccc(CN3CCN(C)CC3)cc2)cc1Nc1nccc(-c2cccnc2)n1 [IMATINIB MESYLATE] |  |  |  |  | > 30.9 | 
